Experimental data as given in patent US20030125287A1, “Antisense oligonucleotides and methods to induce tumor cell death” (Hybridon, Inc., priority 2001, published 2003).
“Also recorded” adds a separate entry of the source. Oligonucleotides are written 5' to 3', each unit as a sugar letter and its base; * is a phosphorothioate linkage, no mark a phosphodiester; rarer units and linkages stand in square brackets, end groups in braces. Plain capitals give the bases only. d = 2'-deoxy (DNA)

Columns and labels:
Format in all cases: cell-based, human
[1] = test system: MSN cells; experiment: Propidium iodide staining, nuclear morphology of MSN cells; conditions: for nuclear morphology by PI staining: 600 nM (FIG. 9); for percentage of cells with abnormal nuclear morphology by PI staining: 600 nM alone (FIG. 9G)
Procedure: Propidium iodide (PI) staining and phase microscopy were used to assess the nuclear morphology of the survivin antisense oligonucleotide-treated MSN cells. MSN cells were treated with lipofectin (FIG. 9A), or 600 nM mismatch oligonucleotide 1132 (FIG. 9B) or survivin antisense oligonucleotide 904 (FIGS. 9C and 9E) or 906 (FIG. 9D), and stained with PI. To assess the effect on nuclear morphology of co-administration of survivin antisense oligonucleotide and the caspases inhibitor zVAD-fmk, MSN cells were treated with 600 nM survivin antisense oligonucleotide 904, 906, or mismatch oligonucleotide 1132 alone, or in the presence of 20 μM zVAD-fmk, and stained with PI (FIG. 9G).
Survivin antisense oligonucleotide-treated cells were fixed with 4% paraformaldehyde for 30 min at room temperature, washed with 1×TBS, permeabilized with 0.1% Triton X-100 for 30 min and treated with 10 μg/ml DNasc free RNase A (Sigma) for 60 min. Nuclei were stained with 200 μg /ml PI for 30 min at 4° C. and washed twice with 1×TBS. Nuclear morphology was assessed on an inverted Olympus 1×70 fluorescence microscope equipped with phase and epifluorescence optics. For each treatment about 600 nuclei were scored as normal, condensed (apoptotic), or abnormal (macronuclei, multilobed) on 15 random, 40×objective fields in duplicate. Quantification results are mean±SEM obtained from two independent experiments performed in duplicate.

[2] = test system: survivin; experiment: Western blot of survivin protein in antisense oligonucleotide-treated MSN cells; conditions: for decrease in survivin protein levels relative to lipofectin-treated control, normalized to β-tubulin / percentage of survivin protein over β-tubulin relative to lipofectin: 400 nM, 48 hours (FIG. 3A); for percentage of survivin protein over β-tubulin relative to lipofectin / effect on survivin protein levels: lipofectin; for effect on survivin protein levels: 48 hours
Procedure: Six survivin (900-906) antisense oligonucleotides were administered at 400 nM to MSN cells in the presence of lipofectin for 48 hours. Each lane has 100 μg of protein. The blots were cut at 32.9 kD and the bottom incubated with the survivin polyclonal antibody (1:500), while the top was incubated with β-tubulin.
Since survivin antisense oligonucleotide 903 decreased survivin protein levels by 76%, the dose dependency of 903 on survivin protein levels was further studied. As expected, mismatched oligonucleotides had no effect on the relative abundance of survivin. […] In the presence of lipofectin, survivin antisense oligonucleotide 903 was administered to MSN cells for 48 hours at 50 nM to 200 nM. Total protein (100 μg) was loaded/lane.
Survivin antisense oligonucleotide 904 decreased survivin protein levels by 46% and 60% while survivin levels were unchanged in cells incubated with the mismatched oligonucleotide 1132. MSN cells were treated with lipofectin, survivin antisense oligonucleotide 904 or 908 at 400 nM and 600 nM, or mismatched oligonucleotide 1132 at 400 nM concentrations. Total protein (100 μg) was separated by SDS polyacrylamide gel electrophoresis and transferred to a nitrocellulose support. The blots were cut at 32.9 kD and the bottom blots incubated with the survivin polyclonal antibody (1:500), while the top blots were incubated with tubulin.
The antisense oligonucleotides were synthesized on solid support with an automated DNA synthesizer using β-cyanoethylphosphoramidite chemistry. In order to prevent rapid degradation of the antisense oligonucleotides by cellular nucleases, oxidation was carried out with Becauge sulfurizing agent to obtain phosphorothioate backbone modified oligonucleotides. After their synthesis, the oligonucleotides were released from the solid support, deprotected, purified by reverse-phase HPLC, desalted, filtered and lyophilized. The purity and sequence integrity of oligonucleotides was ascertained by capillary gel electrophoresis and MALDI-TOF mass spectral analysis and the concentrations measured at […]. Cells were grown in 100 mm dishes and oligonucleotide treatment was performed on subconfluent cultures in the presence of Lipofectin (GIBCO) according to the manufacturer. Forty-eight hours following treatment, total protein homogenates were isolated.
Ten micrograms of the fusion protein was incubated with the survivin antibody (1:500) at 4° C. for 2 hours to overnight prior to immunoblotting. […] Blots were cut at 32.9 kD, and the bottom part of the blots were incubated with the survivin antibody overnight at 4° C. and visualized by enhanced chemiluminescence (Enhanced Chemiluminescence, Amersham, Arlington Heights, Ill.) as previously described (Sharma et al. Cell. Motil. Cytoskeleton 27:234-247).

[3] = test system: apoptosis-inducing factor (AIF); experiment: AIF immunostaining and DAPI double-labeling of MSN cells; conditions: for AIF localization: 600 nM (FIGS. 9H-9K)
Procedure: To examine whether down-regulation of survivin induces AIF nuclear translocation, AIF and DAPI double-labeling was performed on MSN cells treated with lipofectin (FIG. 9H), or 600 nM survivin antisense oligonucleotide 904 (FIG. 9I), mismatch oligonucleotide 1132 (FIG. 9J), or survivin antisense oligonucleotide 906 (FIG. 9K).
Lipofectin, mismatch oligonucleotide 1132 or survivin antisense oligonucleotide-treated MSN cells were fixed and permeabilized as described for PI staining, and blocked for 1 h at room temperature with 10% normal goat serum in 5% non-fat, dry milk in 1×TBS. […] Omission of the primary antibody confirmed that the immunostaining was specific. Cells were counterstained with the DNA-specific dye DAPI (1:1000 of a 1 mg/ml stock; 15 min at room temperature). Cells were examined with an Olympus 1×70 inverted microscope. Fluorescent images were collected using a 12-bit Photometrics cooled CCD camera. For each treatment, 15 random, 40×objective fields consisting of about 600 cells were examined. TRITC (red) and DAPI (blue) stained cells were scored as having AIF staining either in the mitochondria or the nucleus relative to the total number examined. In parallel, the DAPI stained nuclei were also scored as normal, condensed, or abnormal nuclei. Experiments were performed in duplicate.

Substance | nuclear morphology by PI staining [1] | percentage of cells with abnormal nuclear morphology by PI staining [1] [%] | decrease in survivin protein levels ([2]; 400 nM (FIG. 4C)) [%] | decrease in survivin protein levels relative to lipofectin-treated control, normalized to β-tubulin [2] [%] | percentage of survivin protein over β-tubulin relative to lipofectin [2] [%] | decrease in survivin protein levels ([2]; 600 nM (FIG. 4C)) [%] | effect on survivin protein levels [2] | AIF localization [3] | percentage of cells with normal-appearing nuclei by DAPI staining ([3]; 600 nM) [%] | percentage of cells with nuclear localization / translocation of AIF ([3]; 600 nM)
d(TCTTGGCTCTTTCTCTGTCC) (antisense dT*dC*dT*dT*dG*dG*dC*dT*dC*dT*dT*dT*dC*dT*dC*dT*dG*dT*dC*dC) [Oligo 904, 20-mer phosphorothioate survivin antisense oligonucleotide, complementary to survivin mRNA 5248-5267] | abnormal multiple multilobed nuclei | 27 | 46 | 64 | 35.7 | 60 | effective in reducing survivin protein levels in a concentration-dependent manner | nuclear translocation of AIF | – | –
d(GCTTCCCAGTCACATCCTGT) (antisense dG*dC*dT*dT*dC*dC*dC*dA*dG*dT*dC*dA*dC*dA*dT*dC*dC*dT*dG*dT) [Oligo 906, 20-mer phosphorothioate survivin antisense oligonucleotide, complementary to survivin mRNA 11897-11916] | abnormal multiple multilobed nuclei | 31 | – | 73 | 26.9 | – | – | nuclear translocation of AIF | – | –
d(GCACCTAGTCTCCCTGCACC) (DNA, all phosphorothioate, methylation of C not given here) [Oligo 1132, mismatched phosphorothioate control oligonucleotide, not complementary to survivin mRNA, reference compound] | normal nuclear morphology | – | – | – | – | – | had no effect; also recorded: did not alter survivin protein levels | robust AIF staining in the cytosol | 95 | 4-8%
